Experimental data from paper PMC11200976, “Pitavastatin Calcium Confers Fungicidal Properties to Fluconazole by Inhibiting Ubiquinone Biosynthesis and Generating Reactive Oxygen Species” (Antioxidants, 2024).

Key:
C. albicans [1] = experiment: Broth microdilution assay of synergistic lethality with 4 μg/mL FLC (recovery on drug-free YPD); type: cell-based, Candida albicans; conditions: concentration of the compound that is synergistically lethal with 4 μg/mL FLC; C. albicans; recovery on drug-free YPD
C. albicans [2] = experiment: Dose–matrix titration assays (synergy, with YPD recovery plates); type: cell-based, Candida albicans; conditions: for concentration that renders FLC fungicidal (no recovery on YPD solid medium): FLC ≤4 μg/mL, 30 °C, 48 h; for effect of azole combined with PIT: Figure 5B
Protocol: The synergistic effects of drugs were conducted following the same procedure as the MIC assays. Specifically, 50 μL of drug A was distributed through two-fold serial dilution across seven plate columns. Subsequently, 50 μL of drug B was distributed in a two-fold serial dilution manner along seven rows of the plate. Furthermore, 100 μL of C. albicans cultures, adjusted to a density of 1 × 10^3 cells/mL, was dispensed into wells containing drugs and one control well devoid of any drugs. Before the 48 h OD600 readings, the plates were subjected to meticulous agitation to ensure the deposition of a representative 2 μL aliquot from each well onto newly prepared YPD recovery plates, thereby facilitating the evaluation of cellular recuperation following drug treatments. The recovery plates were subsequently incubated at a temperature of 30 °C for a duration ranging from 24 to 48 h, after which they were photographed. The experimental procedures were conducted in triplicate to ensure reliability and reproducibility.

[3] = test system: C. albicans SC5314, SN152, cmp1-aid∆/cmp1-aid∆, and PADH1-UPC2 strains; experiment: FLC disk diffusion assays (25 μg FLC disk, 5 μM adjuvant); type: cell-based, Candida albicans; conditions: for synergistic lethal effects with FLC compared to GdA and CsA (disk diffusion): Figure S3; for effect on FLC tolerance in FLC disk diffusion, all four strains: SC5314, SN152, cmp1-aid∆/cmp1-aid∆, PADH1-UPC2
Protocol: Yeast cells were cultured overnight at a temperature of 30 °C, and the resulting cell suspension was diluted to a concentration of 1 × 10^7 cells/mL in phosphate-buffered saline (PBS). At a concentration of 5 μM, the drugs were individually added to YPD plates for disk assays using a 25 μg FLC disk (6 mm, Liofilchem, Roseto degli Abruzzi, Italy). The plates were then incubated at 30 °C for 48 h. Subsequently, the disk was transferred to a drug-free YPD plate, which was incubated at 30 °C for 24 h and photographed.

[4] = Acute toxicity, Up-and-Down procedure (OECD 425), intraperitoneal; type: in vivo; conditions: C57BL/6, mouse, in vivo, ip, mice
Protocol: Following a previously described methodology, the intraperitoneal route was employed in adult mice. In brief, the primary test involved a sequential administration of doses at intervals of at least 48 h, with one mouse being dosed at a time. Initially, a dose below LD50 was administered intraperitoneally to a mouse. If the mouse survived, the subsequent mouse would receive 1.3 times the initial dose. Conversely, if the mouse died, the subsequent mouse would receive a dose decreased by 1.3 times the initial dose. Each mouse was monitored for 48 h before determining the subsequent mouse’s dosage and administration. The experiment was terminated upon five “survive or die” reversals within a consecutive set of six animals tested. Subsequently, the LD50 and its corresponding confidence interval were computed based on the conditions observed in all mice after the experiment.

| Molecule | Synergistic lethal concentrations (C. albicans [1]) [µM] | concentration that renders FLC fungicidal (no recovery on YPD solid medium) (C. albicans [2]) [µM] | synergistic lethal effects with FLC compared to GdA and CsA (disk diffusion) [3] | effect on FLC tolerance in FLC disk diffusion, all four strains [3] | LD50 at 48 h [4] [mg/kg] | effect of azole combined with PIT (C. albicans [2]) |
| --- | --- | --- | --- | --- | --- | --- |
| ivermectin | 3.125 | ≤ 3.125 | weaker synergistic lethal effects |  |  |  |
| CC[C@@H]1/C=C(\C)C[C@H](C)C[C@H](OC)[C@H]2O[C@@](O)(C(=O)C(=O)N3CCCC[C@H]3C(=O)O[C@H](/C(C)=C/[C@@H]3CC[C@H](Cl)[C@H](OC)C3)[C@H](C)[C@@H](O)CC1=O)[C@H](C)C[C@@H]2OC [pimecrolimus] | 0.1953 | ≤ 3.125 |  | made FLC fungicidal | 42 |  |
| CCC(C)n1ncn(-c2ccc(N3CCN(c4ccc(OCC5COC(Cn6cncn6)(c6ccc(Cl)cc6Cl)O5)cc4)CC3)cc2)c1=O (centres unmarked) [itraconazole] |  |  |  |  |  | synergistic lethal effects |
| Oc1cc(Cl)ccc1Oc1ccc(Cl)cc1Cl [triclosan] | 0.3906 | ≤ 3.125 |  | made FLC fungicidal | 62.6 |  |
| C[C@@H](c1ncncc1F)[C@](O)(Cn1cncn1)c1ccc(F)cc1F [voriconazole] |  |  |  |  |  | synergistic lethal effects |
| C[C@@H]1CC[C@@]2(OC1)O[C@H]1C[C@H]3[C@@H]4CC=C5C[C@@H](O[C@@H]6O[C@H](CO)[C@@H](O[C@@H]7O[C@@H](C)[C@H](O)[C@@H](O)[C@H]7O)[C@H](O)[C@H]6O[C@@H]6O[C@@H](C)[C@H](O)[C@@H](O)[C@H]6O)CC[C@]5(C)[C@H]4CC[C@]3(C)[C@H]1[C@@H]2C [dioscin] | 6.25 | ≤ 3.125 | weaker synergistic lethal effects |  | 32 |  |
| CC(=O)N1CCN(c2ccc(OCC3COC(Cn4ccnc4)(c4ccc(Cl)cc4Cl)O3)cc2)CC1 (centres unmarked) [ketoconazole] |  |  |  |  |  | synergistic lethal effects |
| CCCCCCCCCCCC[N+](C)(C)CCOc1ccccc1 [domiphen bromide] |  | ≤ 3.125 | weaker synergistic lethal effects |  |  |  |
